Assay results as given in patent US11053234B2 (GlaxoSmithKline Intellectual Property Development Limited, priority 2016, dated 2021).
Structures can show the parent of a compound that is named as a salt.

biological target: T1, haematopoietic prostaglandin D synthase (H-PGDS) (Homo sapiens, UniProt O60760); experiment: H-PGDS RapidFire high throughput mass spectrometry assay (conversion of PGH2 to PGD2); format: biochemical; conditions: 10 nM H-PGDS, PGH2 formed in situ by COX-2 from arachidonic acid; read-out: Potency Range (mean pIC50) (converted)
T1 construct: Full length human H-PGDS cDNA (Invitrogen Ultimate ORF 10H13026) was amplified by PCR; 6-His (N); TEV protease cleavage site (N); made in house; host or cells: E. coli BL21 (DE3*), vector pET22b+
Procedure, shortened: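 PGH2 substrate generated in situ by COX-2 (full-length human, FLAG-tagged, Sf9-expressed) from arachidonic acid at ˜10 μM, then converted by full-length human His-tagged H-PGDS (E. coli-expressed). RapidFire SPE–triple quadrupole MS measured PGD2 against PGF2α as substrate surrogate to give percent conversion.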

T1 sequence (O60760 whole entry): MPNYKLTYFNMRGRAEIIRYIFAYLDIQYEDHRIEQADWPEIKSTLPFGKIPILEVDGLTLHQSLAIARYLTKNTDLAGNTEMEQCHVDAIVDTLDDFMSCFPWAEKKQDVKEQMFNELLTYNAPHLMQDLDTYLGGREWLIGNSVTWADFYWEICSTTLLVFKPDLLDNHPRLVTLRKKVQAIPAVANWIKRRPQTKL

| Structure (SMILES) | IC50 |
| --- | --- |
| O=C(Nc1nnc(C2CC2)s1)[C@H]1C[C@H](Oc2cccc3cccnc23)C1 [Example 199, (trans)-N-(5-Cyclopropyl-1,3,4-thiadiazol-2-yl)-3-(quinolin-8-yloxy)cyclobutanecarboxamide] | 10 to 79.4 nM |
| O=C(NC1CCN(CC(F)(F)F)CC1)[C@H]1C[C@H](Oc2cccc3cccnc23)C1 [Example 224, (trans)-3-(Quinolin-8-yloxy)-N-(1-(2,2,2-trifluoroethyl)piperidin-4-yl)cyclobutanecarboxamide] | 10 to 79.4 nM |
| CC(C)(O)[C@H]1CC[C@H](NC(=O)[C@H]2C[C@H](Oc3cccc(Br)c3)C2)CC1 [Example 228, (trans)-3-(3-Bromophenoxy)-N-((trans)-4-(2-hydroxypropan-2-yl)cyclohexyl)cyclobutanecarboxamide] | 100 to 1000 nM |
| Cc1cnc(N2CC(NC(=O)[C@H]3C[C@H](Oc4cc(F)cc5scnc45)C3)C2)nc1 [Example 112, (trans)-3-((6-Fluorobenzo[d]thiazol-4-yl)oxy)-N-(1-(5-methylpyrimidin-2-yl)azetidin-3-yl)cyclobutanecarboxamide] | 10 to 79.4 nM |
| CN(C)C(=O)c1csc(NC(=O)[C@H]2C[C@H](Oc3cccc4cccnc34)C2)n1 [Example 197, N,N-Dimethyl-2-((trans)-3-(quinolin-8-yloxy)cyclobutanecarboxamido)thiazole-4-carboxamide, trifluoroacetic acid salt] | < 10 nM |
| O=C(Nc1nccs1)[C@H]1C[C@H](Oc2cccc3cc(F)cnc23)C1 [Example 281, (trans)-3-((3-Fluoroquinolin-8-yl)oxy)-N-(thiazol-2-yl)cyclobutanecarboxamide] | 10 to 79.4 nM |
| N#Cc1ccc(N2CC(NC(=O)[C@H]3C[C@H](Oc4cccc5scnc45)C3)C2)nc1 [Example 37, (trans)-3-(Benzo[d]thiazol-4-yloxy)-N-(1-(5-cyanopyridin-2-yl)azetidin-3-yl)cyclobutanecarboxamide] | 10 to 79.4 nM |
| COc1ccc(F)cc1O[C@H]1C[C@H](C(=O)Nc2ncc(C(C)(C)O)s2)C1 [Example 165, (trans)-3-(5-Fluoro-2-methoxyphenoxy)-N-(5-(2-hydroxypropan-2-yl)thiazol-2-yl)cyclobutanecarboxamide] | 10 to 79.4 nM |
| CC(C)(O)[C@H]1CC[C@H](NC(=O)[C@H]2C[C@H](Oc3cccc4c3OCC4)C2)CC1 [Example 268, (trans)-3-((2,3-Dihydrobenzofuran-7-yl)oxy)-N-((trans)-4-(2-hydroxypropan-2-yl)cyclohexyl)cyclobutanecarboxamide] | 10 to 79.4 nM |
| CC(C)(O)[C@H]1CC[C@H](NC(=O)N2CC(Oc3cccc4scnc34)C2)CC1 [Example 108, 3-(Benzo[d]thiazol-4-yloxy)-N-((trans)-4-(2-hydroxypropan-2-yl)cyclohexyl)azetidine-1-carboxamide] | 10 to 79.4 nM |
| Cc1ccc(N2CC(NC(=O)[C@H]3C[C@H](Oc4cc(F)cc5scnc45)C3)C2)nc1 [Example 231, (trans)-3-((6-Fluorobenzo[d]thiazol-4-yl)oxy)-N-(1-(5-methylpyridin-2-yl)azetidin-3-yl)cyclobutanecarboxamide] | 10 to 79.4 nM |
| COc1ccc(F)cc1O[C@H]1C[C@H](C(=O)N[C@H]2CC[C@H](OCC(C)(C)O)CC2)C1 [Example 169, (trans)-3-(5-Fluoro-2-methoxyphenoxy)-N-((trans)-4-(2-hydroxy-2-methylpropoxy)cyclohexyl)cyclobutanecarboxamide] | 10 to 79.4 nM |
| O=C(NC1CCCOC1)N1CC(Oc2cccc3scnc23)C1 (racemic) [Example 90, Racemic 3-(Benzo[d]thiazol-4-yloxy)-N-(tetrahydro-2H-pyran-3-yl)azetidine-1-carboxamide] | 100 to 1000 nM |
| C[C@]1(O)C[C@@H](NC(=O)[C@H]2C[C@H](Oc3cc(F)cc4scnc34)C2)C1 [Example 131, (trans)-3-((6-Fluorobenzo[d]thiazol-4-yl)oxy)-N-((cis)-3-hydroxy-3-methylcyclobutyl)cyclobutanecarboxamide] | 100 to 1000 nM |
| CC(C)(O)[C@H]1CC[C@H](NC(=O)[C@H]2C[C@H](Oc3cc(Cl)ccc3Cl)C2)CC1 [Example 257, (trans)-3-(2,5-Dichlorophenoxy)-N-((trans)-4-(2-hydroxypropan-2-yl)cyclohexyl)cyclobutanecarboxamide] | 100 to 1000 nM |
| O=C(Nc1ncc(CO)s1)[C@H]1C[C@H](Oc2cc(F)ccc2OC(F)F)C1 [Example 12, (trans)-3-(2-(Difluoromethoxy)-5-fluorophenoxy)-N-(5-(hydroxymethyl)thiazol-2-yl)cyclobutanecarboxamide] | 10 to 79.4 nM |
| CC(C)(O)c1csc(NC(=O)[C@H]2C[C@H](Oc3cccc4cccnc34)C2)n1 [Example 200, (trans)-N-(4-(2-Hydroxypropan-2-yl)thiazol-2-yl)-3-(quinolin-8-yloxy)cyclobutanecarboxamide] | 10 to 79.4 nM |
| CC(C(F)F)N1CCC(NC(=O)[C@H]2C[C@H](Oc3cc(F)ccc3OC(F)F)C2)CC1 (mixture of isomers) [Example 21, Racemic (trans)-3-(2-(Difluoromethoxy)-5-fluorophenoxy)-N-(1-(1,1-difluoropropan-2-yl)piperidin-4-yl)cyclobutanecarboxamide] | 10 to 79.4 nM |

| Structure (SMILES) | IC50 |
| --- | --- |
| CC(C)(O)C12C3C4C1C1C2C3C41NC(=O)N1CC(Oc2cccc3scnc23)C1 (centres unmarked) [Example 317, 3-(Benzo[d]thiazol-4-yloxy)-N-(4-(2-hydroxypropan-2-yl)cuban-1-yl)azetidine-1-carboxamide] | 10 to 79.4 nM |
| CS(=O)(=O)N1CCC(NC(=O)N2CC(Oc3cccc4scnc34)C2)CC1 [Example 97, 3-(Benzo[d]thiazol-4-yloxy)-N-(1-(methylsulfonyl)piperidin-4-yl)azetidine-1-carboxamide] | 100 to 1000 nM |
| O=C(Nc1ccncc1)N1CC(Oc2cccc3scnc23)C1 [Example 63, 3-(Benzo[d]thiazol-4-yloxy)-N-(pyridin-4-yl)azetidine-1-carboxamide] | 100 to 1000 nM |
| Cc1csc(NC(=O)[C@H]2C[C@H](Oc3cccc4cccnc34)C2)n1 [Example 218, (trans)-N-(4-Methylthiazol-2-yl)-3-(quinolin-8-yloxy)cyclobutanecarboxamide] | 10 to 79.4 nM |
| CN1CCN([C@H]2CC[C@H](NC(=O)N3CC(Oc4cccc5scnc45)C3)CC2)C1=O [Example 102, 3-(Benzo[d]thiazol-4-yloxy)-N-((trans)-4-(3-methyl-2-oxoimidazolidin-1-yl)cyclohexyl)azetidine-1-carboxamide] | 100 to 1000 nM |
| O=C(NC1CCCCC1)[C@H]1C[C@H](Oc2cccc3scnc23)C1 [Example 253] | 100 to 1000 nM |
| CC(C)(O)C1CC2(CC(NC(=O)[C@H]3C[C@H](Oc4cc(F)cc5scnc45)C3)C2)C1 (mixture of isomers) [Example 116, Racemic (trans)-3-((6-Fluorobenzo[d]thiazol-4-yl)oxy)-N-(6-(2-hydroxypropan-2-yl)spiro[3.3]heptan-2-yl)cyclobutanecarboxamide] | 10 to 79.4 nM |
| O=C(Nc1ncc(CO)s1)[C@H]1C[C@H](Oc2cccc3cccnc23)C1 [Example 210, (trans)-N-(5-(Hydroxymethyl)thiazol-2-yl)-3-(quinolin-8-yloxy)cyclobutanecarboxamide] | 10 to 79.4 nM |
| Cn1ccc(NC(=O)N2CC(Oc3cccc4scnc34)C2)n1 [Example 322, 3-(Benzo[d]thiazol-4-yloxy)-N-(1-methyl-1H-pyrazol-3-yl)azetidine-1-carboxamide] | 100 to 1000 nM |
| CC(C)(O)[C@H]1CC[C@H](NC(=O)[C@H]2C[C@H](Oc3cc(F)cc4cccnc34)C2)CC1 [Example 295, (trans)-3-((6-Fluoroquinolin-8-yl)oxy)-N-((trans)-4-(2-hydroxypropan-2-yl)cyclohexyl)cyclobutanecarboxamide] | 10 to 79.4 nM |
| O=C1CC(NC(=O)[C@H]2C[C@H](Oc3cc(F)ccc3OC(F)F)C2)c2ccccc2N1 (mixture of isomers) [Example 25, Racemic (trans)-3-(2-(Difluoromethoxy)-5-fluorophenoxy)-N-(2-oxo-1,2,3,4-tetrahydroquinolin-4-yl)cyclobutanecarboxamide] | 10 to 79.4 nM |
| COc1ccc(F)cc1O[C@H]1C[C@H](C(=O)NC2CCN(c3cc(C#N)ccn3)C2)C1 (mixture of isomers) [Example 145, Racemic (trans)-N-(1-(4-Cyanopyridin-2-yl)pyrrolidin-3-yl)-3-(5-fluoro-2-methoxyphenoxy)cyclobutanecarboxamide] | 10 to 79.4 nM |
| CC1C(Oc2cccc3scnc23)CN1C(=O)N[C@H]1CC[C@H](C(C)(C)O)CC1 (mixture of isomers) [Example 240, Racemic 3-(Benzo[d]thiazol-4-yloxy)-N-((trans)-4-(2-hydroxypropan-2-yl)cyclohexyl)-2-methylazetidine-1-carboxamide] | 10 to 79.4 nM |
| CC(C)(O)[C@H]1CC[C@H](NC(=O)[C@H]2C[C@H](Oc3cccc4cccnc34)C2)CC1 [Example 225, N-((trans)-4-(2-Hydroxypropan-2-yl)cyclohexyl)-3-(quinolin-8-yloxy)cyclobutanecarboxamide] | 10 to 79.4 nM |
| O=C(Nc1cncnc1)[C@H]1C[C@H](Oc2cc(F)ccc2OC(F)F)C1 [Example 22, (trans)-3-(2-(Difluoromethoxy)-5-fluorophenoxy)-N-(pyrimidin-5-yl)cyclobutanecarboxamide] | 100 to 1000 nM |
| O=C(Nc1nc(C(F)(F)F)cs1)[C@H]1C[C@H](Oc2cccc3cccnc23)C1 [Example 201, (trans)-3-(Quinolin-8-yloxy)-N-(4-(trifluoromethyl)thiazol-2-yl)cyclobutanecarboxamide] | 10 to 79.4 nM |
| CC(O)(c1csc(NC(=O)[C@H]2C[C@H](Oc3cccc4cccnc34)C2)n1)C(F)(F)F (mixture of isomers) [Example 187, Racemic (trans)-3-(Quinolin-8-yloxy)-N-(4-(1,1,1-trifluoro-2-hydroxypropan-2-yl)thiazol-2-yl)cyclobutanecarboxamide] | 10 to 79.4 nM |
